From paper PMC10244445, “Molecular basis for the recognition of 24-(S)-hydroxycholesterol by integrin αvβ3” (Scientific Reports, 2023)
pKd: −log10 of the molar value. Like-named read-outs stand apart in the source and are kept apart here.

Molecular target: T1, integrin αvβ3 (Homo sapiens, UniProt P05106+P06756)
T1 construct: gene ITGAV; purified human αvβ3 Integrin; with integrin αv subunit (ITGAV, P06756)
Experiment: SPR (Biacore S200, integrin immobilized on CM5 chip, steady-state model)
Assay type: binding

T1 sequence (P06756 31-889): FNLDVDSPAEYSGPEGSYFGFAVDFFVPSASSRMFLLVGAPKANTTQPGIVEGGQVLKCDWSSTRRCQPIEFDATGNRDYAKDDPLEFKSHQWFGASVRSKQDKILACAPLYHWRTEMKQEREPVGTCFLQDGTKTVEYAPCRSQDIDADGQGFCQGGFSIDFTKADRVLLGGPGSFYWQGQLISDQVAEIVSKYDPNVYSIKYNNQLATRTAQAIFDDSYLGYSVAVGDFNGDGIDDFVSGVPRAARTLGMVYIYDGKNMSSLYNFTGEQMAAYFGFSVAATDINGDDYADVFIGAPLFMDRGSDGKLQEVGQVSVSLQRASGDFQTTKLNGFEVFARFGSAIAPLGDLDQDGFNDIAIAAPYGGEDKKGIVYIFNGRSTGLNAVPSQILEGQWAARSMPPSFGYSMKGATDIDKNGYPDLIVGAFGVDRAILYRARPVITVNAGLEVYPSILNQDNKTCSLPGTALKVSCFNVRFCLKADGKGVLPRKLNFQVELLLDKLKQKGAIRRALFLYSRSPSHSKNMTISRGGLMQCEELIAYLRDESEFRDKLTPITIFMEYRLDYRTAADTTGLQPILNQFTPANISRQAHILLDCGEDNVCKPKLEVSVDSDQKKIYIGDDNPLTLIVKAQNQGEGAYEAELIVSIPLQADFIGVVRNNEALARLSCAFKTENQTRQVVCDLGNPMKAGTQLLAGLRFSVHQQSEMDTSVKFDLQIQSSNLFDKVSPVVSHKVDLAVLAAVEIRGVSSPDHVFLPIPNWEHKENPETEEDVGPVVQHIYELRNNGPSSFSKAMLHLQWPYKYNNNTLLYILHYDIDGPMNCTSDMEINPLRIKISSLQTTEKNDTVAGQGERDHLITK
T1 sequence (P06756 891-1048): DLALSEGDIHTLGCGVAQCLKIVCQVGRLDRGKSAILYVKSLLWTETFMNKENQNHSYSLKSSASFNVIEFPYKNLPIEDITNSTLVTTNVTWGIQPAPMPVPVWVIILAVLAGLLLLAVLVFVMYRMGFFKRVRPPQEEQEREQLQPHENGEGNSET
T1 sequence (P05106 27-788): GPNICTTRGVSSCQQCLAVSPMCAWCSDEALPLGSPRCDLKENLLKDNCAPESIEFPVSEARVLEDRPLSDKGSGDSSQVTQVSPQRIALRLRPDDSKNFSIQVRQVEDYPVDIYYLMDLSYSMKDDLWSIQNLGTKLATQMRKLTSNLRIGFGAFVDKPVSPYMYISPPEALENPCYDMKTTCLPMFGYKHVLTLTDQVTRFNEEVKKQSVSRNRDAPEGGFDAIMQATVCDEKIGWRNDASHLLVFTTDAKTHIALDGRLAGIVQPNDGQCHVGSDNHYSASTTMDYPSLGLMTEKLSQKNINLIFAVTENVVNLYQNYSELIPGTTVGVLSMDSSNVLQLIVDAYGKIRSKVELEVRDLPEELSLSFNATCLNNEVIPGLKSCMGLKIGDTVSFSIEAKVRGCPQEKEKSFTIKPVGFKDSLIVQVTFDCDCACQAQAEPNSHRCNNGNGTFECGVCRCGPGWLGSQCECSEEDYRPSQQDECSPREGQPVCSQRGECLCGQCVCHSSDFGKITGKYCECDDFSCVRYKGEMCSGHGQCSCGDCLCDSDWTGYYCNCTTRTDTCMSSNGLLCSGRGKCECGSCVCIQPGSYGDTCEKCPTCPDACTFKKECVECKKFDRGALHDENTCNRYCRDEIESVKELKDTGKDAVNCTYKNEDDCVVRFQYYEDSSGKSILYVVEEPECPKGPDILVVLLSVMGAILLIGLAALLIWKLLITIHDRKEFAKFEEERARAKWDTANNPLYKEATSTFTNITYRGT

Row | pKd (read-out: Kd) | Compound | pKd
1 |  | CC(C)[C@@H](O)CC[C@@H](C)[C@H]1CC[C@H]2[C@@H]3CC=C4C[C@@H](O)CC[C@]4(C)[C@H]3CC[C@]12C [24HC, 24-(S)-hydroxycholesterol] | 6.82
2 | 7.25 | C[C@H](CCCC(C)(C)O)[C@H]1CC[C@H]2[C@@H]3CC=C4C[C@@H](O)CC[C@]4(C)[C@H]3CC[C@]12C [25HC, 25-hydroxycholesterol] | 
